# Laboratory results taken from patent US20080234233A1, “MEDICAMENT FOR TREATMENT OF NEURODEGENERATIVE DISEASES” (INSTITUTE OF MEDICINAL MOLECULAR DESIGN INC., priority 2002, published 2008).
# Tested on: NF-κ B activation
# Assay: Inhibitory activity of NF-κB activation, luciferase reporter assay under TNF-α stimulation in HepG2
# Assay type: cell-based, human
# Conditions: HepG2, TNF-α 40 ng/ml, 4 hours; for inhibition at 1 µg/mL / inhibition at 10 µg/mL: Homo sapiens, read-out: Inhibitory rate against NF-κB activation (%)
# Outline: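 HepG2 cells transiently transfected with luciferase reporter carrying five tandem NF-κB binding sites, then stimulated with TNF-α (40 ng/ml) ± compound for 4 hours. Luminescent luciferase activity measured; inhibition expressed relative to activity without compound.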
structure (smiles),measurement,setting,value
COc1ccc(Oc2ccccc2)cc1NC(=O)c1cc(Cl)ccc1O [compound 171],Inhibitory rate against NF-κB activation (%),Drug concentration at 1 μg/mL,90.6%
same,Inhibitory rate against NF-κB activation (%),Drug concentration at 10 μg/mL,98.1%
Cc1ccc(-c2ccccc2)cc1NC(=O)c1cc(Cl)ccc1O [compound 172],Inhibitory rate against NF-κB activation (%),Drug concentration at 1 μg/mL,93.7%
same,Inhibitory rate against NF-κB activation (%),Drug concentration at 10 μg/mL,96.4%
COc1ccc(C(C)(C)c2ccccc2)cc1NC(=O)c1cc(Cl)ccc1O [compound 173],Inhibitory rate against NF-κB activation (%),Drug concentration at 1 μg/mL,86.4%
same,Inhibitory rate against NF-κB activation (%),Drug concentration at 10 μg/mL,98.3%
O=C(Nc1cc(N2CCOCC2)ccc1[N+](=O)[O-])c1cc(Cl)ccc1O [compound 174],Inhibitory rate against NF-κB activation (%),Drug concentration at 10 μg/mL,89.6%
CCCCc1ccc([N+](=O)[O-])cc1NC(=O)c1cc(Cl)ccc1O [compound 176],Inhibitory rate against NF-κB activation (%),Drug concentration at 1 μg/mL,96.0%
same,Inhibitory rate against NF-κB activation (%),Drug concentration at 10 μg/mL,99.5%
CCC(C)(C)c1ccc(O)c(NC(=O)c2cc(Cl)ccc2O)c1 [compound 177],Inhibitory rate against NF-κB activation (%),Drug concentration at 1 μg/mL,87.8%
same,Inhibitory rate against NF-κB activation (%),Drug concentration at 10 μg/mL,99.4%
COc1ccc(C)cc1NC(=O)c1cc(Cl)ccc1O [compound 178],Inhibitory rate against NF-κB activation (%),Drug concentration at 10 μg/mL,89.7%
O=C(Nc1cc(F)ccc1F)c1cc(Cl)ccc1O [compound 179],Inhibitory rate against NF-κB activation (%),Drug concentration at 1 μg/mL,92.5%
same,Inhibitory rate against NF-κB activation (%),Drug concentration at 10 μg/mL,93.4%
O=C(Nc1cc(F)cc(F)c1)c1cc(Cl)ccc1O [compound 180],Inhibitory rate against NF-κB activation (%),Drug concentration at 1 μg/mL,90.7%
same,Inhibitory rate against NF-κB activation (%),Drug concentration at 10 μg/mL,93.7%
O=C(Nc1cc(Cl)cc(Cl)c1)c1cc2ccccc2cc1O [compound 181],Inhibitory rate against NF-κB activation (%),Drug concentration at 10 μg/mL,95.1%
O=C(Nc1cc(Cl)cc(Cl)c1)c1c(O)ccc2ccccc12 [compound 182],Inhibitory rate against NF-κB activation (%),Drug concentration at 1 μg/mL,85.3%
same,Inhibitory rate against NF-κB activation (%),Drug concentration at 10 μg/mL,90.2%
COc1ccc(OC)c(NC(=O)c2cc3ccccc3cc2O)c1 [compound 183],Inhibitory rate against NF-κB activation (%),Drug concentration at 10 μg/mL,86.8%
CC(C)(C)c1cc(NC(=O)c2cc(Cl)cnc2O)cc(C(C)(C)C)c1 [compound 184],Inhibitory rate against NF-κB activation (%),Drug concentration at 1 μg/mL,53.6%
same,Inhibitory rate against NF-κB activation (%),Drug concentration at 10 μg/mL,63.8%
"CC(C)(C)c1csc(NC(=O)c2cc(Br)ccc2O)n1 [compound 185, 5-Bromo-N-{4-[(1,1-dimethyl)ethyl]thiazol-2-yl}-2-hydroxybenzamide]",inhibition at 1 µg/mL,Drug concentration at 1 μg/mL,88.4%
same,inhibition at 10 µg/mL,Drug concentration at 10 μg/mL,95.2%
"CC(C)(C)c1nc(NC(=O)c2cc(Br)ccc2O)sc1Br [compound 186, 5-Bromo-N-{5-bromo-4-[(1,1-dimethyl)ethyl]thiazol-2-yl}-2-hydroxybenzamide]",inhibition at 1 µg/mL,Drug concentration at 1 μg/mL,96.5%
same,inhibition at 10 µg/mL,Drug concentration at 10 μg/mL,98.7%
"CC(C)(C)c1nc(NC(=O)c2cc(Cl)ccc2O)sc1C#N [compound 188, 5-Chloro-N-{5-cyano-4-[(1,1-dimethyl)ethyl]thiazol-2-yl}-2-hydroxybenzamide]",inhibition at 1 µg/mL,Drug concentration at 1 μg/mL,92.6%
same,inhibition at 10 µg/mL,Drug concentration at 10 μg/mL,92.4%
CC(C)(C)c1nc(NC(=O)c2cc(Br)ccc2O)sc1C#N [compound 189],Inhibitory rate against NF-κB activation (%),Drug concentration at 1 μg/mL,20.0%
same,Inhibitory rate against NF-κB activation (%),Drug concentration at 10 μg/mL,93.8%
Cc1cnc(NC(=O)c2cc(Br)ccc2O)s1 [compound 190],Inhibitory rate against NF-κB activation (%),Drug concentration at 10 μg/mL,69.7%
Cc1nc(NC(=O)c2cc(Br)ccc2O)sc1C [compound 191],Inhibitory rate against NF-κB activation (%),Drug concentration at 10 μg/mL,67.2%
Cc1sc(NC(=O)c2cc(Br)ccc2O)nc1-c1ccccc1 [compound 192],Inhibitory rate against NF-κB activation (%),Drug concentration at 1 μg/mL,83.6%
same,Inhibitory rate against NF-κB activation (%),Drug concentration at 10 μg/mL,94.4%
"Cc1nc(NC(=O)c2cc(Br)ccc2O)sc1-c1ccc(F)cc1 [compound 193, 5-Bromo-N-[4-methyl-5-(4-fluorophenyl)thiazol-2-yl]-2-hydroxybenzamide]",inhibition at 10 µg/mL,Drug concentration at 10 μg/mL,82%
"Cc1nc(NC(=O)c2cc(Br)ccc2O)sc1-c1cccc(C(F)(F)F)c1 [compound 194, 5-Bromo-N-{4-methyl-5-[3-(trifluoromethyl)phenyl]thiazol-2-yl}-2-hydroxy-benzamide]",inhibition at 10 µg/mL,Drug concentration at 10 μg/mL,71.7%
"CC(C)c1nc(NC(=O)c2cc(Br)ccc2O)sc1-c1ccccc1 [compound 197, 5-Bromo-N-(4-isopropyl-5-phenylthiazol-2-yl)-2-hydroxybenzamide]",inhibition at 1 µg/mL,Drug concentration at 1 μg/mL,70.1%
same,inhibition at 10 µg/mL,Drug concentration at 10 μg/mL,96.1%
"CCCCc1nc(NC(=O)c2cc(Br)ccc2O)sc1-c1ccccc1 [compound 198, 5-Bromo-N-(4-butyl-5-phenylthiazol-2-yl)-2-hydroxybenzamide]",inhibition at 1 µg/mL,Drug concentration at 1 μg/mL,46.1%
same,inhibition at 10 µg/mL,Drug concentration at 10 μg/mL,88.7%
CC(=O)Oc1ccc(Cl)cc1C(=O)Nc1nc(C(C)(C)C)c(C(=O)C(C)(C)C)s1 [compound 200],Inhibitory rate against NF-κB activation (%),Drug concentration at 1 μg/mL,95.0%
same,Inhibitory rate against NF-κB activation (%),Drug concentration at 10 μg/mL,97.7%
"CCOC(=O)c1sc(NC(=O)c2cc(Br)ccc2O)nc1C(C)(C)C [compound 202, 2-(5-Bromo-2-hydroxybenzoyl)amino-4-[(1,1-dimethyl)ethyl]thiazole-5-carboxylic acid ethyl ester]",inhibition at 1 µg/mL,Drug concentration at 1 μg/mL,84.5%
same,inhibition at 10 µg/mL,Drug concentration at 10 μg/mL,92.4%
"CC(C)(C)c1nc(NC(=O)c2cc(Br)ccc2O)sc1N1CCCCC1 [compound 204, 5-Bromo-N-{4-[(1,1-dimethyl)ethyl]-5-piperidinothiazol-2-yl}-2-hydroxybenzamide]",inhibition at 1 µg/mL,Drug concentration at 1 μg/mL,93.6%
same,inhibition at 10 µg/mL,Drug concentration at 10 μg/mL,97.8%
"CC(C)(C)c1nc(NC(=O)c2cc(Br)ccc2O)sc1N1CCOCC1 [compound 205, 5-Bromo-N-{4-[(1,1-dimethyl)ethyl]-5-morpholinothiazol-2-yl}-2-hydroxybenzamide]",inhibition at 1 µg/mL,Drug concentration at 1 μg/mL,87.8%
same,inhibition at 10 µg/mL,Drug concentration at 10 μg/mL,96.8%
"CN1CCN(c2sc(NC(=O)c3cc(Br)ccc3O)nc2C(C)(C)C)CC1 [compound 206, 5-Bromo-N-{4-[(1,1-dimethyl)ethyl]-5-(4-methylpiperazin-1-yl)thiazol-2-yl}-2-hydroxybenzamide]",inhibition at 1 µg/mL,Drug concentration at 1 μg/mL,36.3%
same,inhibition at 10 µg/mL,Drug concentration at 10 μg/mL,89.6%
"CC(C)(C)c1nc(NC(=O)c2cc(Br)ccc2O)sc1N1CCN(c2ccccc2)CC1 [compound 207, 5-Bromo-N-{4-[(1,1-dimethyl)ethyl]-5-(4-phenylpiperazin-1-yl)thiazol-2-yl}-2-hydroxybenzamide]",inhibition at 1 µg/mL,Drug concentration at 1 μg/mL,92.5%
same,inhibition at 10 µg/mL,Drug concentration at 10 μg/mL,95.9%
O=C(Nc1nc(-c2ccccc2)cs1)c1cc(Br)ccc1O [compound 208],Inhibitory rate against NF-κB activation (%),Drug concentration at 10 μg/mL,78.8%
O=C(O)Cc1sc(NC(=O)c2cc(Br)ccc2O)nc1-c1ccccc1 [compound 210],Inhibitory rate against NF-κB activation (%),Drug concentration at 10 μg/mL,72.1%
O=C(Nc1nc(Cc2ccccc2)c(-c2ccccc2)s1)c1cc(Br)ccc1O [compound 212],Inhibitory rate against NF-κB activation (%),Drug concentration at 1 μg/mL,79.7%
same,Inhibitory rate against NF-κB activation (%),Drug concentration at 10 μg/mL,95.0%
O=C(Nc1nc(C(F)(F)F)c(-c2ccccc2)s1)c1cc(Br)ccc1O [compound 213],Inhibitory rate against NF-κB activation (%),Drug concentration at 1 μg/mL,85.1%
same,Inhibitory rate against NF-κB activation (%),Drug concentration at 10 μg/mL,89.4%
"CC(=O)c1sc(NC(=O)c2cc(Br)ccc2O)nc1-c1ccccc1 [compound 214, 5-Bromo-N-(5-acetyl-4-phenylthiazol-2-yl)-2-hydroxybenzamide]",inhibition at 1 µg/mL,Drug concentration at 1 μg/mL,70.2%
same,inhibition at 10 µg/mL,Drug concentration at 10 μg/mL,95.9%
"O=C(Nc1nc(-c2ccccc2)c(C(=O)c2ccccc2)s1)c1cc(Br)ccc1O [compound 215, 5-Bromo-N-(5-benzoyl-4-phenylthiazol-2-yl)-2-hydroxybenzamide]",inhibition at 1 µg/mL,Drug concentration at 1 μg/mL,90.7%
same,inhibition at 10 µg/mL,Drug concentration at 10 μg/mL,97.3%
"CCOC(=O)c1sc(NC(=O)c2cc(Br)ccc2O)nc1-c1ccccc1 [compound 216, 2-(5-bromo-2-hydroxybenzoyl)amino-4-phenylthiazole-5-carboxylic acid ethyl ester]",inhibition at 1 µg/mL,Drug concentration at 1 μg/mL,55.8%
same,inhibition at 10 µg/mL,Drug concentration at 10 μg/mL,82.8%
CCOC(=O)c1sc(NC(=O)c2cc(Br)ccc2O)nc1-c1ccccc1 [compound 218],Inhibitory rate against NF-κB activation (%),Drug concentration at 1 μg/mL,80.7%
same,Inhibitory rate against NF-κB activation (%),Drug concentration at 10 μg/mL,94.2%
"CCOC(=O)c1sc(NC(=O)c2cc(Br)ccc2O)nc1-c1c(F)c(F)c(F)c(F)c1F [compound 219, Ethyl 2-(5-bromo-2-hydroxybenzoyl)amino-4-(pentafluorophenyl)thiazole-5-carboxylate]",inhibition at 1 µg/mL,Drug concentration at 1 μg/mL,82.2%
same,inhibition at 10 µg/mL,Drug concentration at 10 μg/mL,96%
CNC(=O)c1sc(NC(=O)c2cc(Br)ccc2O)nc1-c1ccccc1 [compound 220],Inhibitory rate against NF-κB activation (%),Drug concentration at 1 μg/mL,50.8%
same,Inhibitory rate against NF-κB activation (%),Drug concentration at 10 μg/mL,58.6%
CCNC(=O)c1sc(NC(=O)c2cc(Br)ccc2O)nc1-c1ccccc1 [compound 221],Inhibitory rate against NF-κB activation (%),Drug concentration at 1 μg/mL,51.9%
same,Inhibitory rate against NF-κB activation (%),Drug concentration at 10 μg/mL,84.0%
CC(C)NC(=O)c1sc(NC(=O)c2cc(Br)ccc2O)nc1-c1ccccc1 [compound 222],Inhibitory rate against NF-κB activation (%),Drug concentration at 1 μg/mL,49.6%
same,Inhibitory rate against NF-κB activation (%),Drug concentration at 10 μg/mL,91.3%
O=C(Nc1nc(-c2ccccc2)c(C(=O)NCCc2ccccc2)s1)c1cc(Br)ccc1O [compound 223],Inhibitory rate against NF-κB activation (%),Drug concentration at 1 μg/mL,33.3%
same,Inhibitory rate against NF-κB activation (%),Drug concentration at 10 μg/mL,60.4%
